{"source": "patent US7160992B2", "about": "“Amino-modified polysaccharides and methods of generating and using same” (Yeda Research and Development Co., Ltd., priority 2003, dated 2007)", "key": {"TAR": {"system": "TAR", "conditions": "in contrast to Tat peptide (R52) or AACs; cited from earlier work"}, "TAR or RRE RNAs": {"system": "TAR or RRE RNAs", "conditions": "cited from earlier work"}, "[1]": {"system": "lymphocytes, PBMC and neurons", "conditions": "cited from earlier work"}, "HIV-1 clade C": {"system": "HIV-1 clade C", "assay": "Replication of HIV-1 clade C in MT2 cells, tetrazolium viability", "format": "cell-based", "conditions": "present throughout infection or only the first two hours; NeoR6 2–20 μM, R3G 5–40 μM", "procedure": "Infected cells were washed, seeded in 96-well plate (5×10^4 cells per well) and incubated for 4 days in the absence or presence of various drug concentrations, until syncytia were observed (>25% ctu). Cell viability was measured by tetrazolium-based colorimetric method. The results shown are mean ±standard deviation of triplicates. Circles denote the presence of AACs during the infection step and after the cells were washed; Squares denote the presence of AACs only during the first 2 hours prior to washing."}, "CXCR4": {"target": "T1, CXCR4 (Homo sapiens, UniProt P61073)", "T1 construct": "endogenous in cells; host or cells: PM1 cells and PBMC", "T1 sequence (P61073 whole entry)": "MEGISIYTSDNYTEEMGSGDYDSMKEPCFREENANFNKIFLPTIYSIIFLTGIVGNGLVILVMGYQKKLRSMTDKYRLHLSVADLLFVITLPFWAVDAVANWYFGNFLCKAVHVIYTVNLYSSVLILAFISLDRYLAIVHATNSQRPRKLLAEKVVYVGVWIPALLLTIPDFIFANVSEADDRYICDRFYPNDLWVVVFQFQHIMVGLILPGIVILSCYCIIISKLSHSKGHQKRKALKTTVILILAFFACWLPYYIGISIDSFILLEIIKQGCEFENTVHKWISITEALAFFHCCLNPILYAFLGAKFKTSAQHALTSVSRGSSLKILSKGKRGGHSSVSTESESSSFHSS", "assay": "Inhibition of anti-CXCR4 mAb 12G5 binding to cells, flow cytometry", "format": "cell-based", "procedure": "FIGS. 11a–d are graphs depicting the binding of AACs to CXCR4 in the presence of anti CXCR4 antibody (12G5). PM1 cells were incubated with PE-conjugated isotype control mAb, PE-anti CXCR4 conjugated mAb (12G5) alone, or in the presence of the indicated AACs for 30 min at 4° C. The cells were then washed twice with PBS and analyzed by flow cytometry. The MFI values are shown in parenthesis.\nInteraction of AACs with CXCR4 was determined by flow cytometry (FACScan, Becton Dickinson) as described recently (Litovchick et al., 2001, supra). Briefly, 0.5×10^6 cells were washed in ice-cold PBS containing 0.1% sodium azide (wash buffer) and incubated at 4° C. with anti-CXCR4 mAb, 12G5 (PharMingen, San Diego, Calif.) conjugated to phycoerithrine (PE), in the absence or presence of different concentrations of the AACs. After 30 min of incubation, the cells were washed with ice-cold wash buffer and fixed in PBS containing 1% paraformaldehyde. Non-specific fluorescence was assessed by using isotype-matched control. For each sample 10,000 events were acquired. Data were analyzed and processed using CellQuest™ software (Becton Dickinson)."}, "CCR5": {"target": "T2, CCR5 (Homo sapiens, UniProt P51681)", "T2 construct": "in PHA stimulated peripheral blood lymphocytes (PBL); host or cells: PHA stimulated peripheral blood lymphocytes (PBL)", "T2 sequence (P51681 whole entry)": "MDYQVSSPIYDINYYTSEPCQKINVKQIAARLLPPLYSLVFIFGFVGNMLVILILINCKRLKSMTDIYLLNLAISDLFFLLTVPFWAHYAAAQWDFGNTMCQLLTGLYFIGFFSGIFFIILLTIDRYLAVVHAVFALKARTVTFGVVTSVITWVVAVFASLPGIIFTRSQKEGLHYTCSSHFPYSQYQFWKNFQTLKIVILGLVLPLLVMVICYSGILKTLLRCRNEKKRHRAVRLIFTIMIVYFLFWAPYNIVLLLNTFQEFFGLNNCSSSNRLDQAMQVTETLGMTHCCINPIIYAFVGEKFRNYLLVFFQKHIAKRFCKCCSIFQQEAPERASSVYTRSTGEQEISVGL", "conditions": "PHA stimulated peripheral blood lymphocytes; cited from earlier work"}, "CD4": {"target": "T3, CD4 (Homo sapiens, UniProt P01730)", "T3 construct": "in PHA stimulated peripheral blood lymphocytes (PBL); host or cells: PHA stimulated peripheral blood lymphocytes (PBL)", "conditions": "PHA stimulated peripheral blood lymphocytes; cited from earlier work"}, "[2]": {"system": "NeoR6 resistant HIV-1 isolates", "assay": "Inhibition of NeoR6 resistant HIV-1 isolates in MT2 or cMAGI cells", "format": "cell-based", "excerpt": "(§1) The cMAGI assay is based on the ability of HIV-1 TAT to transactivate the expression of an integrated β-galactosidase reporter gene driven by the HIV-LTR [Chackerian, B. et al., 1997. J Virol. 71: 3932–3939; Collins, K. B. et al., 2000. Nat. Med. 6: 475–479]. The β-galactosidase reporter has been modified to remain localized in the nucleus where it can be detected with the X-gal substrate as an intense nuclear stain within a few days of infection. The X-gal substrate used was 5-bromo-4-chloro-3-indoyl-beta-D-galactopyranoside. HIV1IIIB was propagated by subculture in MT2 as described previously [Litovchick (2001) Supra]. Aliquots of cell-free culture supernatants were used as viral inoculum. […] The cytopathic effects of the viral infection of MT2 cells were analyzed by microscopic assessment of syncytium formation. These latter data were obtained by analysis of duplicate samples by two independent observers. HIV-1 infection of cMAGI cells was determined by counting the number of HIV-1 infected cells (stained blue).\nCulture fluids were replaced […] weekly with fresh medium containing an appropriate drug concentration. […] From the final cycle of each experiment the resistant virus was propagated as described above."}, "HIV-1IIIB wild type": {"system": "HIV-1IIIB wild type", "assay": "Inhibition of HIV-1IIIB wild type in MT2 or cMAGI cells", "format": "cell-based", "excerpt": "as §1"}, "RRE IIB [3]": {"target": "RRE IIB", "conditions": "fluorescein-Rev34-50 as fluorescent tracer; read-out: KD of aminoglycoside binding to RRE IIB; cited from earlier work"}, "RRE IIB [4]": {"system": "RRE IIB", "assay": "Fluorescence anisotropy of aminoglycoside binding to RRE IIB, fluorescein-Rev34-50 tracer (literature)", "set-up": "species or system HIV-1"}, "HIV-1 isolates [5]": {"system": "HIV-1 isolates", "assay": "Inhibition of HIV-1 infection (cMAGI reporter cells, MT2 syncytium formation)", "format": "cell-based", "conditions": "up to 100 μM", "procedure": "Aliquots of cell-free culture supernatants were used as viral inoculum. […] Cytotoxicity determinations were carried out in MT2 and H9 cells by trypan blue exclusion assay.\nViral inhibition was determined by incubating cMAGI HIV-1 reporter cells with 0.2–0.5 multiplicity of infection of HIV-1IIIB for 4 days at 37° C. in the presence or absence of various concentration of AACs, prior to counting the number of HIV-1 infected cells (stained blue). The cytopathic effects of the viral infection of MT2 cells were also analyzed by microscopic assessment of syncytium formation. These latter data were obtained by analysis of duplicate samples by two independent observers."}, "HIV-1 isolates [6]": {"system": "HIV-1 isolates", "conditions": "Cabrera et al., 2002; cited from earlier work"}, "[7]": {"conditions": "NeoR6 resistant isolates after 25 passages, mean and standard deviation of three separate experiments, read-out: EC50, NeoR6RES"}, "[8]": {"conditions": "HIV-1IIIB wt, mean and standard deviation of three separate experiments, read-out: EC50, Wild-type"}}, "note": "Like-named read-outs stand apart in the source and are kept apart here.", "data": [{"molecule": "N=C(N)NCCCC(=O)NCC1OC(OC2C(NC(=O)CCCNC(=N)N)CC(NC(=O)CCCNC(=N)N)C(OC3OC(CO)C(O)C(NC(=O)CCCNC(=N)N)C3O)C2O)C(O)C(O)C1O", "note": "(centres unmarked) [GB4K, kanamycine A conjugated to four γ-guadinno butiric acid]", "values": [{"measurement": "protection of the bulge region of TAR from RNase A cleavage", "setting": "TAR", "value": "cannot protect the bulge region of TAR from RNase A cleavage"}, {"measurement": "affinity to TAR or RRE RNAs (in words)", "setting": "TAR or RRE RNAs", "value": "very low affinity"}]}, {"molecule": "CNC(C)C1CCC(NC(=O)C(N)CCCNC(=N)N)C(OC2C(NC(=O)C(N)CCCNC(=N)N)CC(NC(=O)C(N)CCCNC(=N)N)C(OC3OCC(C)(O)C(NC)C3O)C2O)O1", "note": "(centres unmarked) [R3G, tri-arginine gentamycin C1 conjugate, reference compound]", "values": [{"measurement": "accumulation in cells", "setting": "[1]", "value": "accumulate in different cell types"}, {"measurement": "inhibition of viral proliferation (in words)", "setting": "HIV-1 clade C", "value": "could inhibit viral proliferation"}, {"measurement": "reduction of 12G5 mAb binding to the cells", "setting": "CXCR4; 10 μM AAC, PM1 cells, 30 min at 4° C.", "value": 84, "unit": "%"}, {"measurement": "median fluorescence intensity (MFI) of PE-12G5 in presence of AAC", "setting": "CXCR4; 10 μM AAC, mAb alone 451, isotype control 30", "value": 89}, {"measurement": "inhibition of binding of 2D7, a mAb directed to CCR5", "setting": "CCR5", "value": "neither R3G nor R4K or NeoR6 inhibit the binding"}, {"measurement": "inhibition of binding of anti CD4 antibody (Leu 3a)", "setting": "CD4", "value": "neither R3G nor R4K or NeoR6 inhibit the binding"}, {"measurement": "EC50", "setting": "[2]; [7]", "value": "21000 ± 8800", "unit": "nM"}, {"measurement": "times more resistant than the wild type virus", "setting": "[2]; NeoR6 resistant isolates, following 25 passages", "value": "~5"}, {"measurement": "EC50", "setting": "HIV-1IIIB wild type; [8]", "value": "4100 ± 2400", "unit": "nM"}]}, {"molecule": "NC[C@@H]1O[C@H](O[C@H]2[C@@H](O)[C@H](O[C@@H]3[C@@H](O)[C@H](N)C[C@H](N)[C@H]3O[C@H]3O[C@H](CN)[C@@H](O)[C@H](O)[C@H]3N)O[C@@H]2CO)[C@H](N)[C@@H](O)[C@@H]1O", "note": "[neomycin, neomycin B]", "values": [{"measurement": "Kd", "setting": "RRE IIB [3]", "value": 1180, "unit": "nM"}, {"measurement": "times weaker than NeoR1 binding to RRE IIB", "setting": "RRE IIB [4]; comparator NeoR1", "value": 6}, {"measurement": "times weaker than NeoR2 binding to RRE IIB", "setting": "RRE IIB [4]; comparator NeoR2", "value": 7}, {"measurement": "times weaker than NeoR6 binding to RRE IIB", "setting": "RRE IIB [4]; comparator NeoR6", "value": "~550"}, {"measurement": "antiviral activity (in words)", "setting": "HIV-1 isolates [5]", "value": "did not reveal antiviral activity"}, {"measurement": "inhibition of 12G5 mAb binding to CXCR4 (in words)", "setting": "CXCR4; 20 μM aminoglycoside antibiotic", "value": "did not inhibit"}]}, {"molecule": "SDF-1α", "values": [{"measurement": "anti-HIV-1 EC50, fold lower than that of NeoR6", "setting": "HIV-1 isolates [6]", "value": "~70", "unit": "fold"}, {"measurement": "inhibition of PE-12G5 binding to PM1 cells by SDF-1α", "setting": "CXCR4; 62.5 and 125 nM SDF-1α, control", "value": "inhibited significantly"}, {"measurement": "EC50", "setting": "[2]; NeoR6 resistant HIV-1 isolates, text of b338", "value": 1, "unit": "µg/mL"}, {"measurement": "EC50", "setting": "[2]; [7]", "value": "180 ± 70", "unit": "nM"}, {"measurement": "EC50", "setting": "HIV-1IIIB wild type; [8]", "value": "200 ± 50", "unit": "nM"}, {"measurement": "EC50", "setting": "HIV-1IIIB wild type; wt HIV-1 isolate, text of b338", "value": 1, "unit": "µg/mL"}]}]}
